Source: PubChem BioAssay AID248 (DTP/NCI, 2004)
Values joined by “and” are separate entries in the source; they are usually repeats but may differ in a detail not shown here. Equal entries are not always repeated. Toxic doses and inconclusive results are not listed. Cut-off read from the data, not from the text of the source: active = T/C of 150% or more; inactive = T/C below 125%.

Tested on: L1210 leukemia ip in BDF1 mice, survival T/C
Test: NCI In Vivo Anticancer Drug Screen. Data for tumor model L1210 Leukemia (intraperitoneal) in B6D2F1 (BDF1) mice
Settings: endpoint: mean survival time, higher = longer survival
Method in brief: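 Tumor was transplanted into mice, which were then dosed with test compound or vehicle alone. Survival was recorded for each group, and the treated figure was expressed relative to the control figure.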

[1] = dose: 100.0 mg/kg/injection, schedule: Q01DX009 (ip), vehicle: saline with Tween-80
[2] = dose: 100.0 mg/kg/injection, schedule: Q04DX003 (ip), vehicle: saline with Tween-80
[3] = dose: 200.0 mg/kg/injection, schedule: Q04DX003 (ip), vehicle: saline with Tween-80
[4] = dose: 400.0 mg/kg/injection, schedule: Q01DX009 (ip), vehicle: saline with Tween-80
[5] = dose: 400.0 mg/kg/injection, schedule: Q04DX003 (ip), vehicle: saline with Tween-80
[6] = dose: 100.0 mg/kg/injection, schedule: Q01DX001 (ip), vehicle: saline
[7] = dose: 200.0 mg/kg/injection, schedule: Q01DX001 (ip), vehicle: saline
[8] = dose: 400.0 mg/kg/injection, schedule: Q01DX001 (ip), vehicle: saline
[9] = dose: 100.0 mg/kg/injection, schedule: Q04DX003 (ip), vehicle: Klucel (hydroxypropylcellulose) (HPC)
[10] = dose: 200.0 mg/kg/injection, schedule: Q04DX003 (ip), vehicle: Klucel (hydroxypropylcellulose) (HPC)
[11] = dose: 400.0 mg/kg/injection, schedule: Q04DX003 (ip), vehicle: Klucel (hydroxypropylcellulose) (HPC)
[12] = dose: 200.0 mg/kg/injection, schedule: Q01DX009 (ip), vehicle: saline with Tween-80
[13] = dose: 50.0 mg/kg/injection, schedule: Q01DX001 (ip), vehicle: saline

Measured: T/C

CCC(C)NC(=O)Nc1cccc(Cl)c1C (stereo unspecified)
inactive: [1] 86 % of control | [2] 90 % of control | [3] 95 % of control | [4] 89 % of control | [5] 103 % of control

Cc1c(/C=N/NC(N)=S)[nH]c(=O)[nH]c1=O
inactive: [6] 94 % of control | [7] 94 % of control | [8] 109 % of control

NCCCN1CCCC1=O
inactive: [6] 98 % of control | [7] 101 % of control | [8] 98 % of control

Cc1ccc([N+](=O)[O-])cc1N=C=O
inactive: dose: 100.0 mg/kg/injection, schedule: Q01DX009 (ip), vehicle: Klucel (hydroxypropylcellulose) (HPC) 87 % of control | [9] 96 % of control | dose: 200.0 mg/kg/injection, schedule: Q01DX009 (ip), vehicle: Klucel (hydroxypropylcellulose) (HPC) 91 % of control | [10] 97 % of control | dose: 400.0 mg/kg/injection, schedule: Q01DX009 (ip), vehicle: Klucel (hydroxypropylcellulose) (HPC) 97 % of control | [11] 97 % of control

CCOC(=O)CCN(Cc1ccco1)C(=S)Nc1ccccc1
inactive: dose: 200.0 mg/kg/injection, schedule: Q01DX Z (ip), vehicle: methylcellulose (MC) 89 % of control

O=C1C(N2CCOCC2)=Cc2cccc3cccc1c23
inactive: dose: 50.0 mg/kg/injection, schedule: Q01DX009 (ip), vehicle: saline with Tween-80 103 % of control | [1] 97 % of control | [2] 92 % of control | [12] 97 % of control and 90 % of control | [3] 97 % of control

CC(=O)/C(N=Nc1ccccc1)=C(\C)O
inactive: dose: 50.0 mg/kg/injection, schedule: Q01DX001 (ip), vehicle: carboxymethylcellulose (CMC) 90 % of control | dose: 50.0 mg/kg/injection, schedule: Q01DX009 (sc), vehicle: olive oil, sesame oil, peanut oil 113 % of control | dose: 100.0 mg/kg/injection, schedule: Q01DX001 (ip), vehicle: carboxymethylcellulose (CMC) 97 % of control | dose: 100.0 mg/kg/injection, schedule: Q01DX009 (sc), vehicle: olive oil, sesame oil, peanut oil 113 % of control | dose: 200.0 mg/kg/injection, schedule: Q01DX001 (ip), vehicle: carboxymethylcellulose (CMC) 87 % of control | dose: 200.0 mg/kg/injection, schedule: Q01DX009 (sc), vehicle: olive oil, sesame oil, peanut oil 101 % of control | dose: 400.0 mg/kg/injection, schedule: Q01DX001 (ip), vehicle: carboxymethylcellulose (CMC) 95 % of control

O=C1C2C(C(=O)N1c1ccccc1)C(c1ccccc1)N(c1ccccc1)C2c1ccccc1 (stereo unspecified)
inactive: [13] 103 % of control | [6] 108 % of control | [7] 100 % of control | [8] 103 % of control

CC(C)([CH2][Sn]([Cl])([Cl])[CH2]C(C)(C)c1ccccc1)c1ccccc1
inactive: dose: 0.1 mg/kg/injection, schedule: Q04DX002 (ip), vehicle: saline with Tween-80 95 % of control | dose: 0.2 mg/kg/injection, schedule: Q04DX002 (ip), vehicle: saline with Tween-80 95 % of control | dose: 0.4 mg/kg/injection, schedule: Q04DX002 (ip), vehicle: saline with Tween-80 95 % of control | dose: 0.8 mg/kg/injection, schedule: Q04DX002 (ip), vehicle: saline with Tween-80 92 % of control | dose: 3.13 mg/kg/injection, schedule: Q04DX002 (ip), vehicle: saline with Tween-80 98 % of control

O=C1CC(C(Cl)(Cl)Cl)O1 (stereo unspecified)
inactive: dose: 100.0 mg/kg/injection, schedule: Q04DX002 (ip), vehicle: Klucel (hydroxypropylcellulose) (HPC) 89 % of control | dose: 200.0 mg/kg/injection, schedule: Q04DX002 (ip), vehicle: Klucel (hydroxypropylcellulose) (HPC) 92 % of control | dose: 400.0 mg/kg/injection, schedule: Q04DX002 (ip), vehicle: Klucel (hydroxypropylcellulose) (HPC) 106 % of control

CCOP(=S)(OCC)Oc1cccc(NC(=O)CC)c1
inactive: [1] 102 % of control | [12] 104 % of control | [4] 93 % of control

O=C(Nc1cccc(Cl)c1)c1cc([N+](=O)[O-])ccc1O
inactive: dose: 5.0 mg/kg/injection, schedule: Q01DX001 (ip), vehicle: other 104 % of control | dose: 10.0 mg/kg/injection, schedule: Q01DX001 (ip), vehicle: other 104 % of control | dose: 10.0 mg/kg/injection, schedule: Q02DX010 (ip), vehicle: carboxymethylcellulose (CMC) 105 % of control | dose: 20.0 mg/kg/injection, schedule: Q01DX001 (ip), vehicle: other 104 % of control | dose: 20.0 mg/kg/injection, schedule: Q02DX010 (ip), vehicle: carboxymethylcellulose (CMC) 109 % of control | dose: 40.0 mg/kg/injection, schedule: Q01DX001 (ip), vehicle: other 101 % of control | dose: 40.0 mg/kg/injection, schedule: Q02DX010 (ip), vehicle: carboxymethylcellulose (CMC) 95 % of control | dose: 80.0 mg/kg/injection, schedule: Q01DX001 (ip), vehicle: other 95 % of control | dose: 80.0 mg/kg/injection, schedule: Q02DX010 (ip), vehicle: carboxymethylcellulose (CMC) 88 % of control | dose: 100.0 mg/kg/injection, schedule: Q01DX001 (ip), vehicle: other 86 % of control | dose: 200.0 mg/kg/injection, schedule: Q01DX001 (ip), vehicle: other 97 % of control | dose: 400.0 mg/kg/injection, schedule: Q01DX001 (ip), vehicle: other 114 % of control

CCCC(=O)NO
inactive: [6] 97 % of control | dose: 100.0 mg/kg/injection, schedule: Q01DX009 (ip), vehicle: saline 102 % of control | dose: 100.0 mg/kg/injection, schedule: Q04DX003 (ip), vehicle: saline 109 % of control and 105 % of control | [7] 114 % of control | dose: 200.0 mg/kg/injection, schedule: Q01DX009 (ip), vehicle: saline 104 % of control | dose: 200.0 mg/kg/injection, schedule: Q04DX003 (ip), vehicle: saline 111 % of control and 96 % of control | [8] 108 % of control | dose: 400.0 mg/kg/injection, schedule: Q01DX009 (ip), vehicle: saline 114 % of control | dose: 400.0 mg/kg/injection, schedule: Q04DX003 (ip), vehicle: saline 112 % of control and 100 % of control

CC(C)(C)N1C(=O)N(C(C)(C)C)C1=O
inactive: [1] 91 % of control | [9] 113 % of control | [12] 94 % of control | [10] 102 % of control | [4] 93 % of control | [11] 109 % of control

CCCCCCCCCCCCCCCCCCOc1ccc(Sc2ccc([N+](=O)[O-])cc2)cc1
inactive: [9] 87 % of control | [10] 88 % of control | [11] 88 % of control

O=c1c2c(O)cccc2oc2cccc(O)c12
inactive: [1] 95 % of control | [12] 91 % of control | [4] 96 % of control

Cc1ccc(C(N)=O)cn1
inactive: [1] 104 % of control | [12] 104 % of control | [3] 107 % of control | [4] 101 % of control | [5] 97 % of control

COc1ccc(CCN2C(=O)C=CC2=O)cc1OC
inactive: dose: 5.0 mg/kg/injection, schedule: Q04DX003 (ip), vehicle: saline 97 % of control | dose: 10.0 mg/kg/injection, schedule: Q04DX003 (ip), vehicle: saline 96 % of control | dose: 20.0 mg/kg/injection, schedule: Q04DX003 (ip), vehicle: saline 100 % of control

CC1(C)c2ccccc2N(CCCN)c2ccccc21
inactive: dose: 3.25 mg/kg/injection, schedule: Q01DX001 (ip), vehicle: saline 93 % of control | dose: 6.5 mg/kg/injection, schedule: Q01DX001 (ip), vehicle: saline 93 % of control | dose: 13.0 mg/kg/injection, schedule: Q01DX001 (ip), vehicle: saline 96 % of control | [13] 95 % of control | [6] 106 % of control
